From patent US20130029362A1, “MARKERS AND ASSAYS FOR DETECTION OF NEUROTOXICITY” (priority 2010, published 2013)

Legend:
Male Sprague-Dawley rats [1] = assay: Kainic acid neurotoxicity rat model, immunohistochemistry of brain sections; assay type: in vivo
Method: (§1) Male Sprague-Dawley rats (Harlan: Indianapolis, Ind.) with weight from 180 to 200 g are used. The rats are allowed free access to a normal laboratory diet and chlorinated potable water. All rats are acclimated for at least one week to the housing facilities and diet before being used in the study. The controls in the animal room are set to maintain a temperature of 20° C. to 24° C. and 30% to 70% relative humidity. Rats are maintained on a twelve-hour light/dark cycle.
(§2) Animals received single subcutaneous injections of Kaininc acid (Sigma, Chemical, St. Louis, Mo., USA) at dose 9 mg/kg and sacrificed at 24 h after injection. Separate control/treatment groups of animals are used. Brain tissues and CSF sample are collected at 6, 24, 48 and 72 h time points after injection.
(§3) At the appropriate time points, animals are anesthetized with 4% isoflurane in oxygen as a carrier gas for 4 minutes, followed by maintenance anesthesia of 2-3% isoflurane in the same carrier gas. The rats are placed in a stereotaxic instrument and about 100 μl of CSF from the cisterna magna of each animal is collected transcutaneously through 25 gauge needle attached to polyethylene tubing. CSF samples are frozen on dry ice immediately after collection. After CSF collection animals are removed from the stereotaxic instrument and anesthesia nose cone and the animal, still under anesthesia, is immediately sacrificed by decapitation. Cortex, hippocampus, cerebellum and striatum will be rapidly dissected out, rinsed in cold PBS and snap frozen in liquid nitrogen. To obtain brain tissue for IHC animals are euthanized with lethal dose of pentobarbital, transcardically perfused with 4% paraformaldehyde and whole brains are removed, processed and embedded in paraffin.
IHC is performed on paraffin-embedded 6 μm brain sections. Slides are deparaffinized, incubated for 10 min at 95° C. in Trilogy solution (Cell Marque, Hot Springs, Ak.) for antigen retrieval, blocked for endogenous peroxides and incubated with 1 Abs (GFAP, SBDP145, SBDP150, SBDP120 and Casp 3) overnight at 4° C. followed by treatments with secondary Abs (LSAB+, # K0679, Dako). The staining is visualized with 3,3′-diaminobenzidine (DAB) (Dako, Carpinteria, Calif.) for brown color development. Sections are counterstained with Hematoxylin (Dako, Carpinteria, Calif.). Negative controls are performed by treatment only with species-matched secondary antibodies.

Male Sprague-Dawley rats [2] = assay type: in vivo, rat; details: 9 mg/kg s.c., compared with control group
Method: as §1, §2, §3
Serum and CSF sample concentrations of UCH-L1 are measured using a UCH-L1 sandwich enzyme-linked immunosorbent assay (ELISA) version lb modified from a protocol previously reported (Papa L. et al., 2010; Liu M. et al., 2009). Both mouse monoclonal antibody (capture antibody) and rabbit polyclonal antibody (detection antibody) are made in-house against recombinant human UCH-L1 full length protein and partial protein respectively). Both are affinity purified using target-protein-based affinity column. Their specificity to only target protein (UCH-L1) is confirmed by immunoblotting. Reaction wells are coated with capture antibody (5 μg/mL purified mouse monoclonal anti-human UCHL1) in 0.05 M sodium bicarbonate, pH 9.6 and incubated overnight at 4° C. […] Finally, the wells are developed with substrate solution: Ultra-TMB ELISA 100 μL/well (Pierce #34028) with incubation for 10 min, plate read at 450 nm with a 96-well spectrophotometer (Molecular Device Spectramax 190).
Serum and CSF sample concentrations of GFAP are measured using a GFAP sandwich enzyme-linked immunosorbent assay (ELISA) version 2a. […]

Male Sprague-Dawley rats [3] = assay: Kainic acid neurotoxicity rat model, Western blot of brain tissue for αII-spectrin and SBDPs; assay type: in vivo; details: 9 mg/kg s.c.; hippocampus and to a lesser extent cortex
Method: as §1, §2, §3
After SDS-gel electrophoresis in Tris-glycine buffer system and electrotransfer, blotting membranes are blocked for 1 hour at ambient temperature in 5% non-fat milk in Tris-buffered saline (TBS) and then in TBS containing 0.05% […] (TBST), then incubated in primary monoclonal anti-αII-spectrin antibodies (Biomol, Plymouth Meeting, Pa., USA) diluted ˜1:3000 (3.5 ul/10 ml) in PBS as recommended by the manufacturer at 4° C. overnight. […] Molecular weight of intact αll-spectrin protein and αll-spectrin breakdown products (SBDPs) are assessed by running alongside rainbow colored molecular weight standards (Amersham, Cat # RPN800V). Semi-quantitative evaluation of levels of αll-spectrin and of its breakdown products SBDP150 and SBDP145 and SBDP120 is performed using computer-assisted high-resolution flatbed scanner Epson XL3500 and densitometric image analysis with Image J software (NIH). […]

rats = assay: Kainic acid neurotoxicity rat model, biomarkers in blood plasma; assay type: in vivo; details: process of Example 5 with blood plasma in lieu of CSF; as a function of time
From the text: The process of Example 5 is repeated with blood plasma as the subject sample source the rats in lieu of CSF.

[4] = tested on: Female Sprague-Dawley rats; assay: Acute in vivo drug candidate screening for neurotoxicity, biofluid biomarkers by sandwich ELISA or Western blot; details: rat, i.p., 30, 60, 90, 120 minutes following dosing, methamphetamine 40 mg/kg
Method: Anesthesia is performed with intraperitoneal injections of pentobarbital (50 mg/kg). The test substance can also be administered in a single dose by gavage using a stomach tube or a suitable intubation cannula. Animals are fasted prior to dosing. A total of four to eight animals of are used for each dose level investigated.
30, 60, 90, and 120 minutes following dosing, the rats are sacrificed by decapitation and blood is obtained by cardiac puncture. The levels of biofluid UCH-L1 and SBDP 150 and GFAP are analyzed by sandwich ELISA or Western blot by using UCH-L1 and SBDP 150 and GFAP specific antibodies.

[5] = tested on: Mouse, rat cortical or hippocampal primary neurons; assay: In vitro drug candidate screening for neurotoxicity, ELISA of cell lysates; assay type: cell-based; details: primary neurons 21 DIV, glutamate 30 min, other agents 24 hours
Method: Mouse, rat cortical or hippocampal primary neurons are cultured for 21 DIV, and the dose dependent responses of drugs are investigated. Cultured cells are exposed to various concentrations of: Glutamate (0.01 to 1000 μM) in 10 μM glycine both in HBSS; B) 0.01 to 100 μM Kainate in culture media; C) H2O2 (0.001 to 1000 μM) in culture media; C) Zinc (0.01 to 1000 μM) in culture media; D) U0126 (0.001 to 100 μM) in culture media; and E) and equal volume of culture media as a control. Glutamate treatment is performed for 30 minutes after which the cells are washed and the HBSS is replaced with culture media and analyzed. The remaining candidates are treated for 24 hours and analyzed. The levels of intracellular UCH-L1 and SBDP 145 are analyzed following cell lysis and screening of the lysates by ELISA using anti-UCH-L1 and SBDP 145 specific antibodies. The levels of UCH-L1 are increased following exposure particularly to Glutamate and H2O2.

[6] = 9 mg/kg s.c., hippocampus and cortex, vs control group

C=C(C)[C@H]1CN[C@H](C(=O)O)[C@H]1CC(=O)O [KA, Kainic acid]
level of GFAP (IHC) (Male Sprague-Dawley rats [1]; [6]): increased level
level of SBDP120 (IHC) (Male Sprague-Dawley rats [1]; [6]): increased level
level of SBDP145 (IHC) (Male Sprague-Dawley rats [1]; [6]): increased level
level of SBDP150 (IHC) (Male Sprague-Dawley rats [1]; [6]): increased level
level of αII-spectrin breakdown products (histology images) (Male Sprague-Dawley rats [1]; hippocampus of KA treated rats, FIG. 5): increased level
level of activated Caspase-3 (histology images) (Male Sprague-Dawley rats [1]; hippocampus of KA treated rats, FIG. 7): increased level
SBDP120 in CSF (ELISA) (Male Sprague-Dawley rats [2]): buildup
SBDP145 in CSF (ELISA) (Male Sprague-Dawley rats [2]): buildup
SBDP150 in CSF (ELISA) (Male Sprague-Dawley rats [2]): buildup
expression of GFAP in CSF (ELISA) (Male Sprague-Dawley rats [2]): increase
expression of UCHL 1 in CSF (ELISA) (Male Sprague-Dawley rats [2]): increase
SBDP120 breakdown fragment produced by caspase-3 (Western blot) (Male Sprague-Dawley rats [3]): appearance
SBDP145 breakdown fragment produced by calpain (Western blot) (Male Sprague-Dawley rats [3]): appearance
SBDP150 breakdown fragment produced by calpain (Western blot) (Male Sprague-Dawley rats [3]): appearance
intact αII-spectrin level (Western blot) (Male Sprague-Dawley rats [3]): decrease
Biomarker levels in blood plasma (UCHL 1, GFAP, NF-H) (rats): elevated

CN[C@@H](C)Cc1ccccc1 [methamphetamine]
biofluid GFAP level relative to control animals [4]: increased
biofluid SBDP 150 level relative to control animals ([4]; cisplatin 10 mg/kg): increased
biofluid UCH-L1 level relative to control animals ([4]; cisplatin 10 mg/kg): increased

OO [H2O2]
levels of intracellular UCH-L1 [5]: increased

N[C@@H](CCC(=O)O)C(=O)O [Glutamate]
levels of intracellular UCH-L1 [5]: increased
